Patent publication US20110160206A1, “TRI-SUBSTITUTED PYRIMIDINE COMPOUNDS AND THEIR USE AS PDE10 INHIBITORS” (priority 2009, published 2011)
Counter-ions that a name gives are not always drawn.

Molecular target: T1, PDE10 (PDE10A) (Bos taurus, UniProt A0A3Q1MHJ4)
T1 construct: isolated and prepared from bovine corpus striatum; from tissue; host or cells: bovine corpus striatum
T1 sequence (A0A3Q1MHJ4 1-1068): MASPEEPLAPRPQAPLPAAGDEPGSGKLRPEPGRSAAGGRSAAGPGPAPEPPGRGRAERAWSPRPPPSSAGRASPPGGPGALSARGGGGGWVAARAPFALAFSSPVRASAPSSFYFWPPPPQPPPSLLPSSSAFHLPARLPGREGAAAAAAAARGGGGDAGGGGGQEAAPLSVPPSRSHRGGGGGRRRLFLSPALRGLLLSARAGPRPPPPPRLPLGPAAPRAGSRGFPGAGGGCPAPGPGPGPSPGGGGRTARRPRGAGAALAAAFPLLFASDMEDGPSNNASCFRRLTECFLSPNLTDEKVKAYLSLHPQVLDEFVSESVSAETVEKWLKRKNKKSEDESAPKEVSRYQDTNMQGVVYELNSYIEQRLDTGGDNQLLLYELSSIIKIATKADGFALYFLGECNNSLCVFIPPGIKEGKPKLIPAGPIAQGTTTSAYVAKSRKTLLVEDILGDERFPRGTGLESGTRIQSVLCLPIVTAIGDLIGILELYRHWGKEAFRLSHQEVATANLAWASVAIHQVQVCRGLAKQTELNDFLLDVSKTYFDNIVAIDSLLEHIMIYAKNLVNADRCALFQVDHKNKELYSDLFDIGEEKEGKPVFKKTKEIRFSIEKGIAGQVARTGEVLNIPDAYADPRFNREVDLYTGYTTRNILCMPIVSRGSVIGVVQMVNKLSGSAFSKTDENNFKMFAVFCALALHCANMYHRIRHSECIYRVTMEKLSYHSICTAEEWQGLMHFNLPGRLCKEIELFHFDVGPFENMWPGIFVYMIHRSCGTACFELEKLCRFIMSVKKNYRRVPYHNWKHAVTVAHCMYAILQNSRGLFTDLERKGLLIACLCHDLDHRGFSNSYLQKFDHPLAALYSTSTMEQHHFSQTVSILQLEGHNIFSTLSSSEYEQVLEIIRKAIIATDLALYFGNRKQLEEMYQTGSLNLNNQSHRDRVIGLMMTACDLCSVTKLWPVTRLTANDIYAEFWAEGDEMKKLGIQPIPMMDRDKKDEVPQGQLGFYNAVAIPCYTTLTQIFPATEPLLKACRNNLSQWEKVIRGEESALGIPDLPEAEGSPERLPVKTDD
Assay: Measurement of PDE10 inhibitory activity (radiolabeled nucleotide PDE assay)
Format: biochemical
Conditions: PDE10A from bovine corpus striatum; [3H]cAMP 7 nM final; room temperature 90 min
Experimental: (1) The enzyme PDE10 (PDE10A) was isolated and prepared from bovine corpus striatum, according to the methods described in references Fujishige et al., Eur. J. Biochem., vol. […] The enzyme solution obtained was used for a PDE assay.
Specifically, the measurements of the inhibitory activities were carried out in the following method.
(Method) The test compounds were dissolved in dimethyl sulfoxide (DMSO). […] The final concentration of cAMP in the reaction mixtures was 7 nM. The reaction mixtures were incubated at room temperature for 90 min under dark conditions. After incubation, the reaction was stopped by adding 100 μL of methanol and resultant solutions were applied to filter plate containing Dowex (1×8 200-400) and centrifuged. 50 μL of the eluate together with wash eluate with additional 100 μL methanol was collected in another plate and the radioactivity was measured with 250 μL of scintillant.
(2) The compounds in the Examples below were tested for PDE inhibition using the Method described above.

CN(C)c1nc2ccccc2nc1/C=C/c1nc(NC2CCOCC2)cc(N2CCCC2)n1 [Example 1.001, N,N-dimethyl-3-{(E)-2-[4-pyrrolidin-1-yl-6-(tetrahydro-2H-pyran-4-ylamino)pyrimidin-2-yl]vinyl}quinoxalin-2-amine dihydrochloride]
IC50: 0.1 nM

COCCNc1cc(N2CCCC2)nc(/C=C/c2nc3ccccc3nc2N(C)C)n1 [Example 1.003, 3-((E)-2-{4-[(2-methoxyethyl)amino]-6-pyrrolidin-1-ylpyrimidin-2-yl}vinyl)-N,N-dimethylquinoxalin-2-amine]
IC50: 0.6 nM

CN(C)c1nc2ccccc2nc1/C=C/c1nc(N[C@@H]2CCS(=O)(=O)C2)cc(N2CCCC2)n1 [Example 1.007, 3-[(E)-2-(4-{[(3R)-1,1-dioxidotetrahydro-3-thienyl]amino}-6-pyrrolidin-1-ylpyrimidin-2-yl)vinyl]-N,N-dimethylquinoxalin-2-amine]
IC50: 0.09 nM

CN(c1nc2ccccc2nc1/C=C/c1nc(NC2CCOCC2)cc(N2CCCC2)n1)C1CC1 [Example 1.010, N-cyclopropyl-N-methyl-3-{(E)-2-[4-pyrrolidin-1-yl-6-(tetrahydro-2H-pyran-4-ylamino)pyrimidin-2-yl]vinyl}quinoxalin-2-amine]
IC50: 0.48 nM

Cc1nc2ccccc2nc1/C=C/c1nc(N[C@H]2CC[C@](C)(O)CC2)cc(N2CCCC2)n1 [Example 1.020, trans-1-methyl-4-({2-[(E)-2-(3-methylquinoxalin-2-yl)vinyl]-6-pyrrolidin-1-ylpyrimidin-4-yl}amino)cyclohexanol]
IC50: 0.073 nM

Cc1nc2ccccc2nc1/C=C/c1nc(N[C@H]2CC[C@H](CO)CC2)cc(N2CCCC2)n1 [Example 1.024, [trans-4-({2-[(E)-2-(3-methylquinoxalin-2-yl)vinyl]-6-pyrrolidin-1-ylpyrimidin-4-yl}amino)cyclohexyl]methanol]
IC50: 0.039 nM

Cc1cc2nc(C)c(/C=C/c3nc(N[C@@H]4CCOC4)cc(N4CCCC4)n3)nc2cc1C [Example 1.041, 6-pyrrolidin-1-yl-N-[(3R)-tetrahydrofuran-3-yl]-2-[(E)-2-(3,6,7-trimethylquinoxalin-2-yl)vinyl]pyrimidin-4-amine]
IC50: 0.66 nM

CO[C@H]1CC[C@H](Nc2cc(N3CCCC3)nc(/C=C/c3nc4ccc(F)cc4nc3C)n2)CC1 [Example 1.048, 2-[(E)-2-(6-fluoro-3-methylquinoxalin-2-yl)vinyl]-N-(trans-4-methoxycyclohexyl)-6-pyrrolidin-1-ylpyrimidin-4-amine dihydrochloride]
IC50: 0.04 nM

Cc1nc2ccc(F)cc2nc1/C=C/c1nc(NC2CCOCC2)cc(N2CCCC2)n1 [Example 1.050, 2-[(E)-2-(7-fluoro-3-methylquinoxalin-2-yl)vinyl]-6-pyrrolidin-1-yl-N-(tetrahydro-2H-pyran-4-yl)pyrimidin-4-amine hydrochloride]
IC50: 0.14 nM

Cc1ccc2nc(C)c(/C=C/c3nc(N[C@H]4CC[C@](C)(O)CC4)cc(N4CCCC4)n3)nc2c1 [Example 1.064, trans-4-({2-[(E)-2-(3,7-dimethylquinoxalin-2-yl)vinyl]-6-pyrrolidin-1-ylpyrimidin-4-yl}amino)-1-methylcyclohexanol]
IC50: 0.048 nM

Cc1nc2ccc(C(F)(F)F)cc2nc1/C=C/c1nc(N[C@@H]2CCS(=O)(=O)C2)cc(N2CCCC2)n1 [Example 1.074, N-[(3R)-1,1-dioxidotetrahydro-3-thienyl]-2-{(E)-2-[3-methyl-7-(trifluoromethyl)quinoxalin-2-yl]vinyl}-6-pyrrolidin-1-ylpyrimidin-4-amine]
IC50: 0.0033 nM

COc1ccc2nc(C)c(/C=C/c3nc(NC4CCOCC4)cc(N4CCCC4)n3)nc2c1 [Example 1.078, 2[(E)-2-(7-methoxy-3-methylquinoxalin-2-yl)vinyl]-6-pyrrolidin-1-yl-N-(tetrahydro-2H-pyran-4-yl)pyrimidin-4-amine dihydrochloride]
IC50: 0.047 nM

Cc1nc2ccc(OC(F)(F)F)cc2nc1/C=C/c1nc(N[C@H]2CC[C@H](O)CC2)cc(N2CCCC2)n1 [Example 1.084, trans-4-[(2-{(E)-2-[3-methyl-7-(trifluoromethoxy)quinoxalin-2-yl]vinyl}-6-pyrrolidin-1-ylpyrimidin-4-yl)amino]cyclohexanol]
IC50: 0.011 nM

Cc1cc2ccccc2nc1/C=C/c1nc(NC2CCOCC2)cc(N2CCCC2)n1 [Example 1.090, 2-[(E)-2-(3-methylquinolin-2-yl)vinyl]-6-pyrrolidin-1-yl-N-(tetrahydro-2H-pyran-4-yl)pyrimidin-4-amine]
IC50: 0.36 nM

Cc1cc2ccccc2nc1/C=C/c1nc(N[C@@H]2CCS(=O)(=O)C2)cc(N2CCCC2)n1 [Example 1.093, N-[(3R)-1,1-dioxidotetrahydro-3-thienyl]-2-[(E)-2-(3-methylquinolin-2-yl)vinyl]-6-pyrrolidin-1-ylpyrimidin-4-amine]
IC50: 0.3 nM

Oc1nc2ccccc2nc1/C=C/c1nc(NC2CCOCC2)cc(N2CCCC2)n1 [Example 1.094, 3-{(E)-2-[4-pyrrolidin-1-yl-6-(tetrahydro-2H-pyran-4-ylamino)pyrimidin-2-yl]vinyl}quinoxalin-2-ol hydrochloride]
IC50: 0.17 nM

CN(C)c1nc2ccccc2nc1/C=C/c1nc(N2CCCC2)cc(N2CCOCC2)n1 [Example 1.095, N,N-dimethyl-3-[(E)-2-(4-morpholin-4-yl-6-pyrrolidin-1-ylpyrimidin-2-yl)vinyl]quinoxalin-2-amine]
IC50: 0.79 nM

CN(C)c1nc2ccccc2nc1/C=C/c1nc(N2CCCC2)cc(N(C2CCOCC2)C2CC2)n1 [Example 1.099, 3-((E)-2-{4-[cyclopropyl(tetrahydro-2H-pyran-4-yl)amino]-6-pyrrolidin-1-ylpyrimidin-2-yl}vinyl)-N,N-dimethylquinoxalin-2-amine]
IC50: 0.1 nM

CN(c1cc(N2CCCC2)nc(/C=C/c2nc3ccccc3nc2N(C)C2CC2)n1)C1CCOCC1 [Example 1.101, N-cyclopropyl-N-methyl-3-((E)-2-{4-[methyl(tetrahydro-2H-pyran-4-yl)amino]-6-pyrrolidin-1-ylpyrimidin-2-yl}vinyl)quinoxalin-2-amine]
IC50: 0.46 nM

CO[C@H]1CC[C@H](Nc2cc(N3CCCC3)nc(CCc3nc4cc(C(F)(F)F)ccc4nc3C)n2)CC1 [Example 4.003, N-(trans-4-methoxycyclohexyl)-2-{2-[3-methyl-7-(trifluoromethyl)quinoxalin-2-yl]ethyl}-6-pyrrolidin-1-ylpyrimidin-4-amine]
IC50: 0.031 nM

Cc1nc2ccccc2nc1OCc1nc(N2CCCC2)cc(N(C)C2CCOCC2)n1 [Example 5.002, N-methyl-2-{[(3-methylquinoxalin-2-yl)oxy]methyl}-6-pyrrolidin-1-yl-N-(tetrahydro-2H-pyran-4-yl)pyrimidin-4-amine hydrochloride]
IC50: 0.61 nM

Cc1nc2ccccc2nc1OCc1cc(NC2CCOCC2)nc(N2CCCC2)n1 [Example 6.001, 6-[(3-methylquinoxalin-2-yl)oxy]methyl-2-pyrrolidin-1-yl-N-(tetrahydro-2H-pyran-4-yl)pyrimidin-4-amine hydrochloride]
IC50: 0.22 nM
